Assay results as given in patent US20120141386A1, “Application of Antimicrobial and Glycemic Control Activities of Lo Han Kuo Fruit (Siraitia grosvenorii)” (ORACEUTICALS, INC., priority 2010, published 2012).
“Also recorded” adds a separate entry of the source. Read-outs that look alike come from different tables or passages of the source.

How the values were obtained:
Format in all cases: cell-based
[1] = tested on: A. actinomycetemcomitans; experiment: Inhibition of growth of oral bacteria, A. actinomycetemcomitans; conditions: 500 μM
Method: (§1) The concentration of 500 μM of mogroside II, III, IV, V, VI, 11-o-Mogroside V, and Siamenoside I, siraitiflavandiol, rhamnocitrin-3-O-rhamnoside, and kaempferitrin were used to test the inhibition activity against the growth of oral bacteria, A. actinomycetemcomitans and P. gingivalis.

[2] = tested on: P. gingivalis; experiment: Inhibition of growth of oral bacteria, P. gingivalis
Method: as §1

[3] = tested on: C. albicans; experiment: In vitro inhibition of growth of C. albicans
Method: Mogroside II, III, IV, V, VI, 11-o-Mogroside V, and Siamenoside I were also evaluated in vitro for inhibition of growth of C. albicans.

Compound: C[C@H](CC[C@@H](O[C@@H]1O[C@H](CO[C@@H]2O[C@H](CO)[C@@H](O)[C@H](O)[C@H]2O)[C@@H](O)[C@H](O)[C@H]1O[C@@H]1O[C@H](CO)[C@@H](O)[C@H](O)[C@H]1O)C(C)(C)O)[C@H]1CC[C@@]2(C)[C@@H]3CC=C4[C@@H](CC[C@H](O[C@@H]5O[C@H](CO[C@@H]6O[C@H](CO)[C@@H](O)[C@H](O)[C@H]6O)[C@@H](O)[C@H](O)[C@H]5O)C4(C)C)[C@]3(C)C(=O)C[C@]12C [11-o-Mogroside V]
- antimicrobial activity against A. actinomycetemcomitans (growth inhibition) [1]: higher antimicrobial activity than mogroside II and III
- antimicrobial activity against P. gingivalis (growth inhibition) ([2]; 500 μM): higher antimicrobial activity than mogroside III
- antimicrobial activity against C. albicans (growth inhibition) ([3]; in vitro): higher antimicrobial activity than mogroside VI and Siamenoside I

Compound: C[C@H](CC[C@@H](O[C@@H]1O[C@H](CO[C@@H]2O[C@H](CO)[C@@H](O)[C@H](O)[C@H]2O)[C@@H](O)[C@H](O)[C@H]1O[C@@H]1O[C@H](CO)[C@@H](O)[C@H](O)[C@H]1O)C(C)(C)O)[C@H]1CC[C@@]2(C)[C@@H]3CC=C4[C@@H](CC[C@H](O[C@@H]5O[C@H](CO)[C@@H](O)[C@H](O)[C@H]5O)C4(C)C)[C@]3(C)[C@H](O)C[C@]12C [Siamenoside I]
- antimicrobial activity against C. albicans (growth inhibition) ([3]; in vitro): mogroside II, III, IV, V, and 11-o-Mogroside V showed higher antimicrobial activity than mogroside VI and Siamenoside I

Compound: C[C@@H]1O[C@@H](Oc2cc(O)c3c(=O)c(O[C@@H]4O[C@@H](C)[C@H](O)[C@@H](O)[C@H]4O)c(-c4ccc(O)cc4)oc3c2)[C@H](O)[C@H](O)[C@H]1O [kaempferitrin]
- antimicrobial activity against P. gingivalis (growth inhibition) ([2]; 500 μM): highest activity
- antimicrobial activity against C. albicans (growth inhibition) ([3]; in vitro): good activity

Compound: C[C@H](CC[C@@H](O[C@@H]1O[C@H](CO[C@@H]2O[C@H](CO)[C@@H](O)[C@H](O)[C@H]2O)[C@@H](O)[C@H](O)[C@H]1O)C(C)(C)O)[C@H]1CC[C@@]2(C)[C@@H]3CC=C4[C@@H](CC[C@H](O[C@@H]5O[C@H](CO)[C@@H](O)[C@H](O)[C@H]5O)C4(C)C)[C@]3(C)[C@H](O)C[C@]12C [mogroside III]
- antimicrobial activity against A. actinomycetemcomitans (growth inhibition) [1]: mogroside IV, V, VI, 11-o-Mogroside V showed higher antimicrobial activity than mogroside II and III
- antimicrobial activity against P. gingivalis (growth inhibition) ([2]; 500 μM): mogroside II, IV, V, VI, 11-o-Mogroside V showed higher antimicrobial activity than mogroside III
- antimicrobial activity against C. albicans (growth inhibition) ([3]; in vitro): higher antimicrobial activity than mogroside VI and Siamenoside I

Compound: C[C@H](CC[C@@H](O[C@@H]1O[C@H](CO)[C@@H](O)[C@H](O)[C@H]1O[C@@H]1O[C@H](CO)[C@@H](O)[C@H](O)[C@H]1O)C(C)(C)O)[C@H]1CC[C@@]2(C)[C@H]3CC=C4[C@@H](CC[C@H](O[C@@H]5O[C@H](CO[C@@H]6O[C@H](CO)[C@@H](O)[C@H](O)[C@H]6O)[C@@H](O)[C@H](O)[C@H]5O)C4(C)C)[C@]3(C)[C@H](O)C[C@]12C [mogroside IV]
- antimicrobial activity against A. actinomycetemcomitans (growth inhibition) [1]: higher antimicrobial activity than mogroside II and III
- antimicrobial activity against P. gingivalis (growth inhibition) ([2]; 500 μM): higher antimicrobial activity than mogroside III
- antimicrobial activity against C. albicans (growth inhibition) ([3]; in vitro): higher antimicrobial activity than mogroside VI and Siamenoside I

Compound: C[C@H](CC[C@@H](O[C@@H]1O[C@H](CO[C@@H]2O[C@H](CO)[C@@H](O)[C@H](O)[C@H]2O)[C@@H](O)[C@H](O)[C@H]1O[C@@H]1O[C@H](CO)[C@@H](O)[C@H](O)[C@H]1O)C(C)(C)O)[C@H]1CC[C@@]2(C)[C@@H]3CC=C4[C@@H](CC[C@H](O[C@@H]5O[C@H](CO[C@@H]6O[C@H](CO)[C@@H](O)[C@H](O)[C@H]6O)[C@@H](O)[C@H](O)[C@H]5O)C4(C)C)[C@]3(C)[C@H](O)C[C@]12C [mogroside V, Mogroside V]
- antimicrobial activity against A. actinomycetemcomitans (growth inhibition) [1]: higher antimicrobial activity than mogroside II and III; also recorded: highest activity
- antimicrobial activity against P. gingivalis (growth inhibition) ([2]; 500 μM): higher antimicrobial activity than mogroside III
- antimicrobial activity against C. albicans (growth inhibition) ([3]; in vitro): higher antimicrobial activity than mogroside VI and Siamenoside I

Compound: C[C@H](CC[C@@H](O[C@@H]1O[C@H](CO[C@@H]2O[C@H](CO)[C@@H](O)[C@H](O)[C@H]2O)[C@@H](O)[C@H](O)[C@H]1O[C@@H]1O[C@H](CO)[C@@H](O)[C@H](O)[C@H]1O)C(C)(C)O)[C@H]1CC[C@@]2(C)[C@H]3CC=C4[C@H](CC[C@H](O[C@@H]5O[C@H](CO[C@@H]6O[C@H](CO)[C@@H](O)[C@H](O)[C@H]6O)[C@@H](O)[C@H](O)[C@H]5O[C@@H]5O[C@H](CO)[C@@H](O)[C@H](O)[C@H]5O)C4(C)C)[C@]3(C)[C@H](O)C[C@]12C [mogroside VI]
- antimicrobial activity against A. actinomycetemcomitans (growth inhibition) [1]: higher antimicrobial activity than mogroside II and III
- antimicrobial activity against P. gingivalis (growth inhibition) ([2]; 500 μM): higher antimicrobial activity than mogroside III
- antimicrobial activity against C. albicans (growth inhibition) ([3]; in vitro): mogroside II, III, IV, V, and 11-o-Mogroside V showed higher antimicrobial activity than mogroside VI and Siamenoside I

Compound: mogroside II
- antimicrobial activity against A. actinomycetemcomitans (growth inhibition) [1]: mogroside IV, V, VI, 11-o-Mogroside V showed higher antimicrobial activity than mogroside II and III
- antimicrobial activity against P. gingivalis (growth inhibition) ([2]; 500 μM): higher antimicrobial activity than mogroside III
- antimicrobial activity against C. albicans (growth inhibition) ([3]; in vitro): higher antimicrobial activity than mogroside VI and Siamenoside I

Compound: rhamnocitrin-3-O-rhamnoside
- antimicrobial activity against P. gingivalis (growth inhibition) [2]: highest activity
- antimicrobial activity against C. albicans (growth inhibition) [3]: good activity

Compound: siraitiflavandiol
- antimicrobial activity against P. gingivalis (growth inhibition) ([2]; 500 μM): highest activity
- antimicrobial activity against C. albicans (growth inhibition) ([3]; in vitro): good activity
